Measured values from patent US20200002354A1, “HEXAHYDROPYRAZINOBENZ- OR -PYRIDO-OXAZEPINES CARRYING AN OXYGEN-CONTAINING SUBSTITUENT AND USE THEREOF IN THE TREATMENT OF 5-HT2C-DEPENDENT DISORDERS” (AbbVie Deutschland GmbH & Co. KG, priority 2015, published 2020).
Where two headings read alike, the source gives them in different places.

Assays:
human 5-HT2A receptor = molecular target: T1, human 5-HT2A receptor (Homo sapiens, UniProt P28223); experiment: Human 5-HT2A functional assay (calcium mobilisation in CHO-K1 cells, FLIPR); type: cell-based; details: based on agonism: EC50 5-HT2A/EC50 5-HT2C
T1 construct: expressed in transfected cells; host or cells: CHO-K1
T1 sequence (P28223 whole entry): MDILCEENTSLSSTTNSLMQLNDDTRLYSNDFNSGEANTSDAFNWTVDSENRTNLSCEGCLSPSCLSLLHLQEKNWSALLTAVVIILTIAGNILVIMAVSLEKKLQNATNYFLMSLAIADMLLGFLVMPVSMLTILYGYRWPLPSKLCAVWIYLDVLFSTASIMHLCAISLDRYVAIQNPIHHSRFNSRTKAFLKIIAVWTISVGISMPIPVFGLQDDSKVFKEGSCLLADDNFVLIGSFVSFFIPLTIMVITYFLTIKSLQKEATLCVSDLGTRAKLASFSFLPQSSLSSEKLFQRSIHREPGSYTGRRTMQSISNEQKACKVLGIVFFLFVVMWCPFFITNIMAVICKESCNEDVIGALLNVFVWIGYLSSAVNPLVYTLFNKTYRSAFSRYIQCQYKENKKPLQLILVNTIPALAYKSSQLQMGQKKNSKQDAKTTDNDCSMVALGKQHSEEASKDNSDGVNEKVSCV
Description: 2. Human 5-HT2A Functional Assay
Functional activity on the 5-HT2A receptor was determined by testing the effect of the compounds I on calcium mobilisation in CHO-K1 cells, stably transfected with human 5-HT2A receptor. Cells were seeded into sterile black 384-well plates with clear bottom at 25,000 cells/well in a volume of 25 μl and grown for 5-6 hours at 37° C., in 5% CO2 in tissue culture medium (“Ultra CHO” by LONZA), containing 1% dialysed FCS and 50 μg/ml gentamicin (Invitrogen). After this incubation, medium was replaced by a serum free version of the same tissue culture medium followed by incubation overnight at 37° C. and in 5% CO2. Cells were then loaded with a fluorescent calcium-sensitive dye in the presence of 0.07% probenecid for an hour at 37° C., according to the manufacturer's protocol (Ca5-Assay Kit, Molecular Devices), followed by an additional 60 min incubation at room temperature. Serial compound dilutions (final concentrations of 10^−10 to 10^−5M, prepared in HBSS+50 mM HEPES) were first added to the cells alone (“first addition” to assess agonism on the 5-HT2A receptor), then after 8 min, serotonin was added to the same wells at a final concentration of 3×10^−8 M (“second addition” to see potential antagonistic effect) and the maximal calcium response was determined using a FLIPR® Tetra instrument (Molecular Devices) in each of the two steps. The relative efficacy of the compounds was calculated as a percentage of the maximal effect induced by serotonin alone (defined as 100%). To determine EC50/IC50 values, concentration-response curves were fitted using a four-parameter logistic equation (IDBS Biobookml). Kb values were calculated from IC50 values, according to Cheng & Prusoff

5-HT2C receptor = molecular target: T2, 5-HT2C receptor (Homo sapiens, UniProt P28335); experiment: Human 5-HT2C functional assay (beta-arrestin2 recruitment, U2OS_HTR2C_β-Arrestin cells); type: cell-based; details: for Emax: relative efficacy vs maximal effect induced by 5-HT (defined as 100%)
T2 construct: host or cells: U2OS
T2 sequence (P28335 33-458): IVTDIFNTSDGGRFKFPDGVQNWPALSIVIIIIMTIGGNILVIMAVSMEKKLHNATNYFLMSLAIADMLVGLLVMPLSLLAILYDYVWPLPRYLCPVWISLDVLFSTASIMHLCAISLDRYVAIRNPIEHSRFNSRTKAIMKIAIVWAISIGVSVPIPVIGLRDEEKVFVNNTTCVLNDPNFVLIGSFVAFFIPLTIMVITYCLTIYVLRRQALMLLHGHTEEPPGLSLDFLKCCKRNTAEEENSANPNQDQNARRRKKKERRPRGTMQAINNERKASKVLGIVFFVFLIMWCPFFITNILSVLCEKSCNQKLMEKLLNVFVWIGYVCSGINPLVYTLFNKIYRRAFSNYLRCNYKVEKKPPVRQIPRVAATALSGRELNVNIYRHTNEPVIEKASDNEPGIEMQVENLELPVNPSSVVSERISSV
T2 sequence (P32121 whole entry partner): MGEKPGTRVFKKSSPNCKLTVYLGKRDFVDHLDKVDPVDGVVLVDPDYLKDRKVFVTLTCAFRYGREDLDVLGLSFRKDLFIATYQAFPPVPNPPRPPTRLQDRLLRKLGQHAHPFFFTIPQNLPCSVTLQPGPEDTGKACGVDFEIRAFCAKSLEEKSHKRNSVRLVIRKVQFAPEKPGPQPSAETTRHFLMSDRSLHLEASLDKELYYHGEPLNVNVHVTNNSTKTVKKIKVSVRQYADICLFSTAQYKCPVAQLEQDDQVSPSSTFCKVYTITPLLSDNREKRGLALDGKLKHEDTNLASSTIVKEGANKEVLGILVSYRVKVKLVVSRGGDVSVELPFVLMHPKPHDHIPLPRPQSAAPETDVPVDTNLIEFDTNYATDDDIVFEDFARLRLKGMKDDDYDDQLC
Description: 1. Human 5-HT2C Functional Assay
The functional activity of compounds of formula I was assayed by incubation with U2OS_HTR2C_β-Arrestin cells (DiscoverX, 93-0289C3) to induce beta-arrestin2 recruitment to the 5-HT2C receptor. The agonist-induced recruitment and proximity of the receptor and beta-arrestin2 leads to complementation and formation of active β-galactosidase. The enzyme complementation results in enzyme activity, which is measured following the termination of the agonist incubation using DiscoveRx's detection reagent, which contains a chemiluminescent substrate which produces a high intensity signal. Cells were plated and a medium-change to a 1% serum containing medium was performed 24 h later. The next day, test compounds were added and incubated for 1.5 h before addition of detection reagent.
The response produced was measured and compared with the response produced by 10 [mu]M 5-HT or the maximal effect induced by 5-HT (defined as 100%) to which it was expressed as a percentage response (relative efficacy).

[1] = Metabolic stability in human liver microsomes, unbound intrinsic clearance; type: in vitro ADME; details: pH 7.4
Description: Samples of the tested compounds (0.5 μM) were preincubated together with human liver microsomes (0.25 mg of microsomal protein/mL) in 0.05 M potassium phosphate buffer of pH 7.4 in microtiter plates at 37° C. for 5 minutes. The reaction was started by adding NADPH (1.0 mM). After 0, 5, 10, 15, 20 and 30 minutes, an aliquot was removed, the reaction was cooled and stopped by adding twice the amount of quench solution consisting of acetonitrile/methanol 1:1, and containing 0.2 μM carbutamide as internal standard. The samples were frozen until analyzed. The remaining concentration of undegraded test substance was determined by liquid chromatography-tandem mass spectrometry (LC-MS/MS). The half-life (t1/2) was determined from the gradient of the ratio of the signal of (test substance/internal standard)/unit time plot, allowing the calculation of the half-life of the test substance, assuming first order kinetics, from the decrease in the concentration of the compound with time. The microsomal clearance (mClint) was calculated as follows: mClint=((ln(2)/t ½)/Microsomal Protein Concentration (mg/ml))*1000, leading to the unit of uL/min/mg. The scaled clearance (mClin_scaled) was calculated as mCLint_scaled=m CLint*(Microsomal Yield (mg/kg BW))/1000000*60, leading to the units L/h/kg. The Microsomal Yield is defined by the specifics of the used microsomes. Calculations were modified from references: Di, The Society for Biomolecular Screening, 2003, 453-462; Obach, D M D, 1999 vol 27. N 11, 1350-1359.
Calculation of Unbound Intrinsic Clearance
C1int unbound=C1 int/fu mic

human 5-HT2B receptor = molecular target: T3, human 5-HT2B receptor (Homo sapiens, UniProt P41595); experiment: Human 5-HT2B functional assay (calcium mobilisation in CHO-FlpIn cells, FLIPR); type: cell-based; details: based on agonism: EC50 5-HT2B/EC50 5-HT2C
T3 construct: expressed in transfected cells; host or cells: CHO-FlpIn
T3 sequence (P41595 whole entry): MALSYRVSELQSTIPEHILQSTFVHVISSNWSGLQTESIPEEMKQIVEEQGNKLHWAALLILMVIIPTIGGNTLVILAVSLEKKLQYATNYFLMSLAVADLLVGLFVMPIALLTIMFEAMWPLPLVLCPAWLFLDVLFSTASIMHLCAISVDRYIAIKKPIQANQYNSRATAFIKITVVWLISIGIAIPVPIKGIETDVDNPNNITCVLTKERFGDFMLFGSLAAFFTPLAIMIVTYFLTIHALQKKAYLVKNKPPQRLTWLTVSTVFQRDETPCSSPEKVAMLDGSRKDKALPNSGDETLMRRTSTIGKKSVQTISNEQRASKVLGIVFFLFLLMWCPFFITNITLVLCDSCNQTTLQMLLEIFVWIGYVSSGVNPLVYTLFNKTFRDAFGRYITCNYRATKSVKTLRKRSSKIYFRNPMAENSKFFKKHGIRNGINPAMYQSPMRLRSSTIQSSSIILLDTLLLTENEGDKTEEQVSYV
Description: 3. Human 5-HT2B Functional Assay
Functional activity on the 5-HT2B receptor was determined by testing the effect of the compounds I on calcium mobilisation in CHO-FlpIn cells, stably transfected with human 5-HT2B receptor. Cells were seeded into sterile black 384-well plates with clear bottom at 30,000 cells/well in a volume of 25 μl and grown overnight at 37° C., in 5% CO2 in tissue culture medium (“CHO-S-SFM II” by Invitrogen), containing 1% dialysed FCS and 50 μg/ml gentamicin (Invitrogen). On the next morning, medium was replaced by a serum free version of the same tissue culture medium for a further incubation for 4 hours at 37° C. and in 5% CO2. Cells were then loaded with a fluorescent calcium-sensitive dye in the presence of 0.07% probenecid for an hour at 37° C., according to the manufacturer's protocol (Ca5-Assay Kit, Molecular Devices), followed by an additional 60 min incubation at room temperature. Serial compound dilutions (final concentrations of 10^−10 to 10^−5M, prepared in HBSS+50 mM HEPES) were first added to the cells alone (“first addition” to assess agonism on the 5-HT2B receptor), then after 8 min, serotonin was added to the same wells at a final concentration of 10^−8 M (“second addition” to see potential antagonistic effect) and the maximal calcium response was determined using a FLIPR® Tetra instrument (Molecular Devices) in each of the two steps. The relative efficacy of the compounds was calculated as a percentage of the maximal effect induced by serotonin alone (defined as 100%). To determine EC50/IC50 values, concentration-response curves were fitted using a four-parameter logistic equation (IDBS Biobookml). Kb values were calculated from IC50 values, according to Cheng & Prusoff

[2] = Potency (EC50 5-HT2C) in functional assay, agonism, read-out: EC50 5-HT2C
[3] = liver microsomes, unbound intrinsic clearance (human), Clint unbound = Cl int/fu mic, read-out: Cl int, mic unb. (h)

Row | Compound | Selectivity over 5-HT2A (human 5-HT2A receptor) | EC50 (5-HT2C receptor; [2]) | Emax (5-HT2C receptor) | CLint scaled at 0.5 μM [1, 3] | Selectivity over 5-HT2B (human 5-HT2B receptor) | EC50 (5-HT2C receptor) | CLint scaled at 0.5 μM ([1]; human, microsomes)
1 | COC[C@@H]1C[C@@H]2CNCCN2c2c(F)c(F)cc(F)c2O1.O=C(O)/C=C/C(=O)O [Example 18, (4aR,6S)-8,10,11-Trifluoro-6-(methoxymethyl)-2,3,4,4a,5,6-hexahydro-1H-pyrazino[2,1-d][1,5]benzoxazepine; fumaric acid] | +++ (>100) | 20 to 200 nM | > 70% | < 83.3 mL/min/kg | +++ (>100) |  | 
2 | Cl.[2H]C([2H])([2H])OC[C@@H]1C[C@@H]2CNCCN2c2cc(F)cc(Cl)c2O1 [Example 19, (4aR,6S)-8-Chloro-10-fluoro-6-(trideuteriomethoxymethyl)-2,3,4,4a,5,6-hexahydro-1H-pyrazino[2,1-d][1,5]benzoxazepine hydrochloride] | +++ (>100) | < 20 nM | > 70% | < 83.3 mL/min/kg | ++ (from >30 to 100) |  | 
3 | COC[C@@H]1C[C@@H]2CNCCN2c2cccc(C(F)F)c2O1.Cl [Example 6, (4aR,6S)-8-(Difluoromethyl)-6-(methoxymethyl)-2,3,4,4a,5,6-hexahydro-1H-pyrazino[2,1-d][1,5]benzoxazepine hydrochloride] | +++ (>100) | < 20 nM | > 70% | < 83.3 mL/min/kg | ++ (from >30 to 100) |  | 
4 | COC[C@@H]1C[C@@H]2CNCCN2c2ccc(F)c(Cl)c2O1.Cl [Example 5, (4aR,6S)-8-Chloro-9-fluoro-6-(methoxymethyl)-2,3,4,4a,5,6-hexahydro-1H-pyrazino[2,1-d][1,5]benzoxazepine hydrochloride] | +++ (>100) | < 20 nM | > 70% | < 83.3 mL/min/kg | + (from 10 to 30) |  | 
5 | COC[C@@H]1C[C@@H]2CNCCN2c2cc(F)cc(Cl)c2O1.Cl [Example 7, (4aR,6S)-8-Chloro-10-fluoro-6-(methoxymethyl)-2,3,4,4a,5,6-hexahydro-1H-pyrazino[2,1-d][1,5]benzoxazepine hydrochloride] | +++ (>100) | < 20 nM | > 70% | < 83.3 mL/min/kg | +++ (>100) |  | 
6 | COC[C@@H]1C[C@@H]2CNCCN2c2cc(Cl)ccc2O1.Cl [Example 10, (4aR,6S)-10-Chloro-6-(methoxymethyl)-2,3,4,4a,5,6-hexahydro-1H-pyrazino[2,1-d][1,5]benzoxazepine hydrochloride] | ++ (from >30 to 100) | 20 to 200 nM |  | 83.3 to 833 mL/min/kg | ++ (from >30 to 100) |  | 
7 | COC[C@@H]1C[C@@H]2CNCCN2c2cc(F)cc(C(F)(F)F)c2O1.Cl [Example 22, (4aR,6S)-10-Fluoro-6-(methoxymethyl)-8-(trifluoromethyl)-2,3,4,4a,5,6-hexahydro-1H-pyrazino[2,1-d][1,5]benzoxazepine hydrochloride] | +++ (>100) | < 20 nM | > 70% | < 83.3 mL/min/kg | ++ (from >30 to 100) |  | 
8 | COC[C@@H]1C[C@@H]2CNCCN2c2ccc(F)cc2O1.Cl [Example 51, (4aR,6S)-9-Fluoro-6-(methoxymethyl)-2,3,4,4a,5,6-hexahydro-1H-pyrazino[2,1-d][1,5]benzoxazepine hydrochloride] | + (from 10 to 30) | 200 to 1000 nM | 50 to 70% | < 83.3 mL/min/kg | ++ (from >30 to 100) |  | 
9 | COC[C@@H]1C[C@@H]2CNCCN2c2ccccc2O1.O=C(O)C(F)(F)F [Example 3, (4aR,6S)-6-(Methoxymethyl)-2,3,4,4a,5,6-hexahydro-1H-pyrazino[2,1-d][1,5]benzoxazepine; 2,2,2-trifluoroacetic acid] | + (from 10 to 30) |  | 50 to 70% |  | + (from 10 to 30) | 200 to 1000 nM | < 83.3 mL/min/kg
10 | COC[C@@H]1C[C@@H]2CNCCN2c2c(F)cccc2O1.Cl [Example 54, (4aR,6S)-11-Fluoro-6-(methoxymethyl)-2,3,4,4a,5,6-hexahydro-1H-pyrazino[2,1-d][1,5]benzoxazepine hydrochloride] | + (from 10 to 30) | 200 to 1000 nM | 30 to 50% | < 83.3 mL/min/kg | + (from 10 to 30) |  | 
11 | C#Cc1cc(F)cc2c1O[C@H](COC)C[C@@H]1CNCCN21.Cl [Example 34, (4aR,6S)-8-Ethynyl-10-fluoro-6-(methoxymethyl)-2,3,4,4a,5,6-hexahydro-1H-pyrazino[2,1-d][1,5]benzoxazepine hydrochloride] | +++ (>100) | < 20 nM | > 70% | < 83.3 mL/min/kg | + (from 10 to 30) |  | 
12 | COC[C@@H]1C[C@@H]2CNCCN2c2cc(Cl)c(F)cc2O1.Cl [Example 31, (4aR,6S)-10-Chloro-9-fluoro-6-(methoxymethyl)-2,3,4,4a,5,6-hexahydro-1H-pyrazino[2,1-d][1,5]benzoxazepine hydrochloride] | ++ (from >30 to 100) | 20 to 200 nM | 30 to 50% | < 83.3 mL/min/kg | ++ (from >30 to 100) |  | 
